# Data published in US8648066B2 (Exelixis, Inc., priority 2009, dated 2014).
# Target: mTOR/GbL/Raptor (mTORC1) (Homo sapiens, UniProt P42345)
# Assay: mTOR/GbL/Raptor (mTORC1) ELISA assay
# Assay type: biochemical
# Settings: phosphorylation of 4E-BP1; 0.2 nM mTORC1, 10 μM ATP; read-out: IC50 in this assay (mTORC1 ELISA)
# How it was run: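 Human mTORC1 (0.2 nM) phosphorylated 50 nM His-tagged 4E-BP1 with 10 µM ATP in HEPES pH 7.2 containing 10 mM MnCl2, 120 min at ambient temperature. Substrate was captured on Ni-chelate plates; phospho-4E-BP1 was detected by primary antibody and HRP secondary with luminescence.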
row,IC50,SMILES
1,10 to 50 nM,"CC1(C)CCc2ncnc(N3CCOc4ccc(-c5cnc(N)c(S(=O)(=O)NC6CNC6)c5)cc4C3)c2C1 [Example 426, 2-amino-N-azetidin-3-yl-5-[4-(6,6-dimethyl-5,6,7,8-tetrahydroquinazolin-4-yl)-2,3,4,5-tetrahydro-1,4-benzoxazepin-7-yl]pyridine-3-sulfonamide]"
2,50 to 250 nM,"CCNc1nc2ccc(-c3ccc4c(c3)CN(c3nc(C)nc(Nc5ccccc5)c3C)CCO4)cc2[nH]1 [Example 538, 6-{4-[2,5-dimethyl-6-(phenylamino)pyrimidin-4-yl]-2,3,4,5-tetrahydro-1,4-benzoxazepin-7-yl}-N--ethyl-1H-benzimidazol-2-amine]"
3,250 to 1000 nM,"COc1ccc(-c2ccc3c(c2)CN(c2nc(CN(C)C)nc4c2CC(C)(C)CC4)CCO3)cc1S(C)(=O)=O [Example 652, 1-(6,6-dimethyl-4-{7-[4-(methyloxy)-3-(methylsulfonyl)phenyl]-2,3-dihydro-1,4-benzoxazepin-4(5H)-yl}-5,6,7,8-tetrahydroquinazolin-2-yl)-N,N-dimethylmethanamine]"
4,50 to 250 nM,"COc1ccc2c(N3CCOc4ccc(-c5ccc(-c6c[nH]cn6)cc5)cc4C3)nc(C)nc2c1 [Example 570, 7-[4-(1H-imidazol-4-yl)phenyl]-4-[2-methyl-7-(methyloxy)quinazolin-4-yl]-2,3,4,5-tetrahydro-1,4-benzoxazepine]"
5,≤ 10 nM,"CNS(=O)(=O)c1cc(-c2ccc3c(c2)CN(c2ncnc4c2CC(C)(C)C=C4)CCO3)cnc1N [Example 401, 2-amino-5-[4-(6,6-dimethyl-5,6-dihydroquinazolin-4-yl)-2,3,4,5-tetrahydro-1,4-benzoxazepin-7-yl]-N-methylpyridine-3-sulfonamide]"
6,≤ 10 nM,"Cc1nc2c(c(N3CCOc4ccc(-c5cnc6nc(C7CC7)[nH]c6c5)cc4C3)n1)CC(C)(C)CC2 [Example 544, 7-(2-cyclopropyl-1H-imidazo[4,5-b]pyridin-6-yl)-4-(2,6,6-trimethyl-5,6,7,8-tetrahydroquinazolin-4-yl)-2,3,4,5-tetrahydro-1,4-benzoxazepine]"
7,≤ 10 nM,"Cc1nc2cc(-c3ccc4c(c3)CN(c3nc(CN5CCCC5)nc5c3CC(C)(C)CC5)CCO4)ccc2[nH]1 [Example 500, 4-[6,6-dimethyl-2-(pyrrolidin-1-ylmethyl)-5,6,7,8-tetrahydroquinazolin-4-yl]-7-(2-methyl-1H-benzimidazol-5-yl)-2,3,4,5-tetrahydro-1,4-benzoxazepine]"
8,50 to 250 nM,"Cc1nc2ccc(-c3ccc4c(c3)CN(c3nc(-c5ccccn5)nc5c3CC(C)(C)CC5)CCO4)cc2[nH]1 [Example 472, 4-(6,6-dimethyl-2-pyridin-2-yl-5,6,7,8-tetrahydroquinazolin-4-yl)-7-(2-methyl-1H-benzimidazol-6-yl)-2,3,4,5-tetrahydro-1,4-benzoxazepine]"
9,50 to 250 nM,"CC1(C)CCc2ncnc(N3CCOc4ccc(-c5cnc(N)c(S(=O)(=O)N[C@H]6CC[C@H](N)CC6)c5)cc4C3)c2C1 [Example 416, 2-amino-N-(trans-4-aminocyclohexyl)-5-[4-(6,6-dimethyl-5,6,7,8-tetrahydroquinazolin-4-yl)-2,3,4,5-tetrahydro-1,4-benzoxazepin-7-yl]pyridine-3-sulfonamide]"
10,≤ 10 nM,"CC1(C)CCc2ncnc(N3CCOc4ccc(-c5cnc(N)c(S(=O)(=O)N6CC[C@@H](N)C6)c5)cc4C3)c2C1 [Example 449, 3-{[(3R)-3-aminpyrrolidin-1-yl]sulfonyl}-5-[4-(6,6-dimethyl-5,6,7,8-tetrahydroquinazolin-4-yl)-2,3,4,5-tetrahydro-1,4-benzoxazepin-7-yl]pyridin-2-amine]"
11,250 to 1000 nM,"COCCc1c(C)nc(CN(C)C)nc1N1CCOc2ccc(-c3ccc4nc(C)[nH]c4c3)cc2C1 [Example 664, N,N-dimethyl-1-{4-methyl-6-[7-(2-methyl-1H-benzimidazol-6-yl)-2,3-dihydro-1,4-benzoxazepin-4(5H)-yl]-5-[2-(methyloxy)ethyl]pyrimidin-2-yl}methanamine]"
12,10 to 50 nM,"Cc1nc2cc(-c3ccc4c(c3)CN(c3nc(NCCN(C)C)nc(C)c3Cc3ccc(F)cc3)CCO4)ccc2[nH]1 [Example 683, N′-{5-[(4-fluorophenyl)methyl]-4-methyl-6-[7-(2-methyl-1H-benzimidazol-5-yl)-2,3-dihydro-1,4-benzoxazepin-4(5H)-yl]pyrimidin-2-yl}-N,N-dimethylethane-1,2-diamine]"

# The remaining lines, values behind:
row,SMILES,IC50
1,"CN1CCC[C@H](CNS(=O)(=O)c2cc(-c3ccc4c(c3)CN(c3ncnc5c3CC(C)(C)CC5)CCO4)cnc2N)C1 [Example 393, 2-amino-5-[4-(6,6-dimethyl-5,6,7,8-tetrahydroquinazolin-4-yl)-2,3,4,5-tetrahydro-1,4-benzoxazepin-7-yl]-N-{[(3S)-1-methylpiperidin-3-yl]methyl}pyridine-3-sulfonamide]",50 to 250 nM
2,"CC1(C)CCc2ncnc(N3CCOc4ccc(-c5cnc(N)c(S(=O)(=O)NC[C@@H]6CCCNC6)c5)cc4C3)c2C1 [Example 386, 2-amino-5-[4-(6,6-dimethyl-5,6,7,8-tetrahydroquinazolin-4-yl)-2,3,4,5-tetrahydro-1,4-benzoxazepin-7-yl]-N-[(3R)-piperidin-3-ylmethyl]pyridine-3-sulfonamide]",250 to 1000 nM
3,"CCCNC(=O)c1ccc(-c2ccc3c(c2)CN(c2ccnc4ccccc24)CCO3)cc1 [Example 244, N-propyl-4-(4-quinolin-4-yl-2,3,4,5-tetrahydro-1,4-benzoxazepin-7-yl)benzamide]",50 to 250 nM
4,"Cc1nc2ccc(-c3ccc4c(c3)CN(c3ncnc(C)c3Cc3cc(F)cc(F)c3)CCO4)cc2[nH]1 [Example 91, 4-(5-[(3,5-difluorophenyl)methyl]-6-methylpyrimidin-4-yl}-7-(2-methyl-1H-benzimidazol-6-yl)-2,3,4,5-tetrahydro-1,4-benzoxazepine]",10 to 50 nM
5,"Cc1ncc(-c2ccc3c(c2)CN(c2ncnc4c2CCC(C)(C)C4)CCO3)s1 [Example 152, 4-(7,7-dimethyl-5,6,7,8-tetrahydroquinoazlin-4-yl)-7-(2-methyl-1,3-thiazol-5-yl)-2,3,4,5-tetrahydro-1,4-benzoxazepine]",250 to 1000 nM
6,"CC(O)CNS(=O)(=O)c1cc(-c2ccc3c(c2)CN(c2ncnc4c2CC(C)(C)CC4)CCO3)cnc1N (stereo not shown) [Example 372, 2-amino-5-[4-(6,6-dimethyl-5,6,7,8-tetrahydroquinazolin-4-yl)-2,3,4,5-tetrahydro-1,4-benzoxazepin-7-yl]-N-(2-hydroxypropyl)pyridine-2-sulfonamide]",10 to 50 nM
7,"CC(CO)NS(=O)(=O)c1cc(-c2ccc3c(c2)CN(c2ncnc4c2CC(C)(C)CC4)CCO3)cnc1N (stereo not shown) [Example 368, 2-amino-5-[4-(6,6-dimethyl-5,6,7,8-tetrahydroquinazolin-4-yl)-2,3,4,5-tetrahydro-1,4-benzoxazepin-7-yl]-N-(2-hydroxy-1-methylethyl)pyridine-3-sulfonamide]",10 to 50 nM
8,"CSc1nc2ccc(-c3ccc4c(c3)CN(c3ccnc5ccccc35)CCO4)cc2[nH]1 [Example 207, 7-[2-(methylthio)-1H-benzimidazol-6-yl]-4-quinolin-4-yl-2,3,4,5-tetrahydro-1,4-benzoxazepine]",50 to 250 nM
9,"Cc1nc2ccc(-c3ccc4c(c3)CN(c3ncnc5c3CCN(Cc3ccccc3)C5)CCO4)cc2[nH]1 [Example 60, 7-(2-methyl-1H-benzimidazol-6-yl)-4-[7-(phenylmethyl)-5,6,7,8-tetrahydropyrido[3,4-d]pyrimidin-4-yl]-2,3,4,5-tetrahydro-1,4-benzoxazepine]",50 to 250 nM
10,"Cc1ncnc(N2CCOc3ccc(-c4ccc5nc(N)[nH]c5n4)cc3C2)c1Cc1ccc(F)cc1 [Example 194, 5-(4-{5-[(4-fluorophenyl)methyl]-6-methylpyrimidin-4-yl}-2,3,4,5-tetrahydro-1,4-benzoxazepin-7-yl)-3H-imidazo[4,5-b]pyridin-2-amine]",10 to 50 nM
11,"COC(=O)Nc1nc2ccc(-c3ccc4c(c3)CN(c3ncnc(C)c3Cc3ccc(F)cc3)CCO4)cc2[nH]1 [Example 113, methyl [6-(4-{5-[(4-fluorophenyl)methyl]-6-methylpyrimidin-4-yl}-2,3,4,5-tetrahydro-1,4-benzoxazepin-7-yl)-1H-benzimidazol-2-yl]carbamate]",10 to 50 nM
12,"CC1(C)CCc2ncnc(N3CCOc4ccc(-c5ccc6nc(N)[nH]c6c5)cc4C3)c2C1 [Example 236, 6-[4-(6,6-dimethyl-5,6,7,8-tetrahydroquinazolin-4-yl)-2,3,4,5-tetrahydro-1,4-benzoxazepin-7-yl]-1H-benzimidazol-2-amine]",≤ 10 nM
13,"Cc1cccc(Cc2c(C)ncnc2N2CCOc3ccc(-c4ccc5nc(C)[nH]c5c4)cc3C2)c1 [Example 82, 7-(2-methyl-1H-benzimidazol-6-yl)-4-{6-methyl-5-[(3-methylphenyl)methyl]pyrimidin-4-yl}-2,3,4,5-tetrahydro-1,4-benzoxazepine]",10 to 50 nM
14,"CN(CCO)S(=O)(=O)c1cc(-c2ccc3c(c2)CN(c2ncnc4c2CC(C)(C)CC4)CCO3)cnc1N [Example 370, 2-amino-5-[4-(6,6-dimethyl-5,6,7,8-tetrahydroquinazolin-4-yl)-2,3,4,5-tetrahydro-1,4-benzoxazepin-7-yl]-N-(2-hydroxyethyl)-N-methylpyridine-3-sulfonamide]",10 to 50 nM
15,"CCNc1nc2ccc(-c3ccc4c(c3)CN(c3ccnc5ccccc35)CCO4)cc2[nH]1 [Example 208, N-ethyl-6-(4-quinolin-4-yl-2,3,4,5-tetrahydro-1,4-benzoxazepin-7-yl)-1H-benzimidazol-2-amine]",50 to 250 nM
16,"CCNS(=O)(=O)c1cc(-c2ccc3c(c2)CN(c2ncnc4c2CC(C)(C)CC4)CCO3)cnc1N [Example 396, 2-amino-5-[4-(6,6-dimethyl-5,6,7,8-tetrahydroquinazolin-4-yl)-2,3,4,5-tetrahydro-1,4-benzoxazepin-7-yl]-N-ethylpyridine-3-sulfonamide]",10 to 50 nM
